# Data taken from paper PMC7594877, “Multidirectional in vitro and in cellulo studies as a tool for identification of multi-target-directed ligands aiming at symptoms and causes of Alzheimer’s disease” (Journal of Enzyme Inhibition and Medicinal Chemistry, 2020).
# Assays:
# human BACE1 = target: T1, human BACE1 (Homo sapiens, UniProt P56817); experiment: In vitro inhibition of human BACE1, FRET assay; type: biochemical; conditions: for IC50: mean of three experiments ± SEM, read-out: hBACE1 IC50; for hBACE1 % inhibition: at 10 µM per table footnote b, mean of three experiments ± SD; for BACE1 percentage of inhibition: screening concentration 50 µM
# T1 construct: purchased Panvera, Madison, WI (BACE1 FRET Assay Kit); host or cells: baculovirus-expressed
# Experimental: To further explore the multifunctional profile of the ligands, we screened them for their inhibitory activity against human BACE1 using spectrofluorometric assay (fluorescence resonance energy transfer (FRET)-based). […] Therefore, BACE1 inhibitors are now being tested in earlier stages of AD and in asymptomatic subjects at risk of AD, with the hope of blocking the disease process before it becomes irreversible.
# BACE1 FRET Assay Kit (Panvera, Madison, WI) was performed according to the manufacturer’s protocol with small modifications. The Kit includes purified baculovirus-expressed BACE1 and specific peptide substrate (Rh-[…]-quencher), based on the “Swedish” mutant of APP. The analysis was carried, using 384-well black microplates and a microplate reader (EnSpire Multimode; PerkinElmer, Waltham, MA). The wavelength was optimised for the 553 nm excitation and 576 nm emission. Stock solutions of all test compounds were prepared in DMSO and further diluted with assay buffer (50 mM sodium acetate; pH 4.5). In the first step, 10 μL of BACE1 substrate was mixed with 10 μL of test compound (or assay buffer; i.e. blank sample), then 10 μL of the enzyme (1 U/mL) was added to start the reaction. After 60 min of incubation at 25 °C, 10 μL of stop solution (2.5 M sodium acetate) was applied to stop the reaction. The fluorescence signal was read at 576 nm. Percent of inhibition was calculated from [1 − (S60 − S0)/(C60 − C0)] × 100, where S0 and S60 are fluorescence intensities of the test sample (enzyme, substrate, test compound) at the beginning of the reaction and after 60 min, respectively, while C0 and C60 are analogical fluorescence intensities of the blank sample (enzyme, substrate, buffer). […] Each compound was analysed in triplicate. Commercially available BACE1 Inhibitor IV (Calbiochem, Merck; Nottingham, UK) was used as the reference compound. The IC50 values were calculated using nonlinear regression (GraphPad Prism 5 [GraphPad Software, San Diego, CA, 5.00]) by plotting the residual enzyme activities against the applied inhibitor concentration.
# tau = target: T2, tau (Homo sapiens, UniProt P10636); experiment: In cellulo tau aggregation inhibition, Thioflavin S fluorescence in E. coli overexpressing tau; type: cell-based, Escherichia coli; conditions: at 10 µM; mean of three experiments ± SEM
# T2 construct: expressed in transfected cells; host or cells: E. coli BL21 (DE3) with pTARA (T7 RNA polymerase under pBAD) and pRKT42
# Description: (§1) We screened multifunctional ligands from our in-house library for their anti-aggregating activity against Aβ and tau in the whole bacterial cells using the Thioflavin S (ThS) fluorescence assay. Bacterial cells overexpressing different proteins provide simple models that can be easily employed to monitor the mechanisms of protein aggregation related to a variety of conformational diseases[36]^,[37]. In our assay, E. coli system has been implemented to study the effect of potential Aβ42 and tau aggregation inhibitors within intact cells. The advantage of the test over in vitro tests is the fact that it considers the complexity of the cellular environment that plays a crucial role in tuning protein aggregation. This assay has been validated and successfully applied to assess the anti-aggregating properties of diverse chemical structures. Previously investigated tetrahydrobenzo[h][1,6] naphthyridine-6-chlorotacrine hybrid DP-128 was used as a reference compound[38]^,[39].
# (§2) The assays were conducted according to the procedure described previously. All general chemicals were purchased from Sigma-Aldrich (St. Louis, MO) . Reagents for bacterial media were purchased from Conda (Sevilla, Spain). M9 minimal medium for 100 mL: 10 mL of salts 10× (0.68 g of Na2HPO4, 0.30 g of KH2PO4, 0.05 g of NaCl, 0.10 g of NH4Cl), 0.2 mL of 1 M MgSO4, 0.2 mL of 50 mM CaCl2, 2.5 mL of 20% glucose, and 87.1 mL of H2O.
# (§3) E. coli competent cells BL21 (DE3) were transformed with the pET28a vector (Novagen, Inc., Madison, WI) carrying the DNA sequence of Aβ42 or with pTARA containing the RNA polymerase gene of T7 phage (T7RP) under the control of the promoter pBAD, then with pRKT42 vector encoding four repeats of tau protein in two inserts. For overnight culture preparation, 10 ml of M9 minimal medium containing 50 μg/mL of kanamycin (Aβ42) or 50 μg/mL of ampicillin and 12.5 μg/mL of chloramphenicol (tau) were inoculated with a colony of BL21 (DE3) bearing the plasmid Aβ42 or tau plasmids to be expressed at 37 °C and 180 rpm using an incubator shaker (Ovan, Barcelona, Spain). After overnight growth, the OD600 was usually 2 − 2.5. For expression of Aβ42 peptide/tau protein, 200 μL of overnight culture were transferred into Eppendorf tubes of 1.5 mL containing 790 μL of fresh M9 minimal medium with 50 μg/mL of kanamycin1 mM of isopropyl 1-thio-β-D-galactopyranoside (IPTG) (Aβ42) or 50 μg/mL of ampicillin, 12.5 μg/mL of chloramphenicol, 0.25% of arabinose (tau), and 25 μM of ThS and 10 μL of reference, tested compounds (1 mM in DMSO, final concentration: 10 μM) or DMSO. The samples were grown for 24 h at 37 °C and 180 rpm using an incubator shaker (Ovan). The samples with DMSO were prepared as a negative control (maximum level of Aβ42/tau, 0% of inhibition). In the positive controls, the M9 medium without IPTG (minimal level of Aβ42) or arabinose (minimal level of tau) was used. For absorbance and fluorescence determination, 200 μL of each Eppendorf tube was transferred in triplicate into 96-well plate. Finally, the fluorescence emission at 520 nm, when exciting at 440 nm and absorbance at 600 nm was recorded using the multi-mode microplate reader (Beckman Counter, Brea, CA). The absorbance at 600 nm (OD600) of these samples was assessed to check the bacterial growth and potential intrinsic toxicity of the tested compounds. Final data are the average of three independent experiments. DP-128 was used as a reference compound[38].
# Aβ42 = target: T3, Aβ42 (Homo sapiens, UniProt P05067); experiment: In cellulo Aβ42 aggregation inhibition, Thioflavin S fluorescence in E. coli overexpressing Aβ42; type: cell-based, Escherichia coli; conditions: at 10 µM; mean of three experiments ± SEM
# T3 construct: expressed in transfected cells; host or cells: E. coli BL21 (DE3) with pET28a-Aβ42, IPTG-induced
# Description: as §1, §2, §3
# T1 sequence (P56817 46-501): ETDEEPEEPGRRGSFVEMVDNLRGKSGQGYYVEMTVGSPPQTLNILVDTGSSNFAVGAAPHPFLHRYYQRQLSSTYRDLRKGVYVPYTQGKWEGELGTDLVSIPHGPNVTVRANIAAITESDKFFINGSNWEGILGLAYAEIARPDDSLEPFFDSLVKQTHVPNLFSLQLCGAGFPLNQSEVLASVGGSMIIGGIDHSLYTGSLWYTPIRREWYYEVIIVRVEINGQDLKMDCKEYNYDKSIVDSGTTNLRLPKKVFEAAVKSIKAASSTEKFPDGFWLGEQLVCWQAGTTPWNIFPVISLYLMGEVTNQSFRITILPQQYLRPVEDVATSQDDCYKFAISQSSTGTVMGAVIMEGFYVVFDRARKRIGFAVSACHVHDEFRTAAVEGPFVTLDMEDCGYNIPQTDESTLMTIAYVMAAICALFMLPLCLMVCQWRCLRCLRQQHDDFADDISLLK
# T2 sequence (P10636 other isoform, or with tags, fused parts or gaps): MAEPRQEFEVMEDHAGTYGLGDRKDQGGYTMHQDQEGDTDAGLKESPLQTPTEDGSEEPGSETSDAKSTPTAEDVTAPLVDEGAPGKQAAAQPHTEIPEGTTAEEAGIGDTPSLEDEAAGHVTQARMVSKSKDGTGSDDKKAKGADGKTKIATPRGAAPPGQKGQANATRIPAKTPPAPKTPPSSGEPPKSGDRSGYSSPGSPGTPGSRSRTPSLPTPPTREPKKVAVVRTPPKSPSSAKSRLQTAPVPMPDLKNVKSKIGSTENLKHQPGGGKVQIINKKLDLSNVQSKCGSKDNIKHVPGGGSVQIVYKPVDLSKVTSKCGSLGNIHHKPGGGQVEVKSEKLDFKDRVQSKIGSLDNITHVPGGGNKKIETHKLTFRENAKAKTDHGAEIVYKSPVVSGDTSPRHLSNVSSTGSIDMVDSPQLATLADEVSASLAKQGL
# T3 sequence (P05067 672-713): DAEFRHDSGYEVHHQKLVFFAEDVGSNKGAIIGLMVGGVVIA
Structure (SMILES),IC50 (human BACE1),In cellulo tau inhibition % (tau),In cellulo Aβ42 inhibition % (Aβ42),hBACE1 % inhibition (human BACE1),BACE1 percentage of inhibition (human BACE1)
c1ccc(Cn2ccc3c(N4CCN(CCCCCNc5c6c(nc7ccccc57)CCCC6)CC4)cccc32)cc1 [Compound 19],7.23 ± 0.38 µM,,,,
O=S(=O)(c1ccccc1)n1ccc2c(N3CCN(CCNCc4ccccc4)CC3)cccc21 [Compound 6],,54.6 ± 6.2%,64.8 ± 3.4%,67.4% ± 4.8,
c1ccc(CNCCCCCCCN2CCN(c3cccc4c3ccn4Cc3ccccc3)CC2)cc1 [Compound 24],21.7 ± 1.57 µM,55.6 ± 4.2%,21.4 ± 3.4%,,
Cc1c(OCc2ccccc2)cccc1N1CCN(CCCNc2c3c(nc4ccccc24)CCCC3)CC1 [Compound 27],5.76 ± 0.28 µM,64.5 ± 4.1%,64.9 ± 4.5%,,
O=S(=O)(c1ccccc1)n1ccc2c(N3CCN(CCNc4c5c(nc6ccccc46)CCCC5)CC3)cccc21 [Compound 1],1.58 ± 0.15 µM,58.1 ± 4.8%,40.7 ± 4.3%,,
Cc1c(OCc2ccccc2)cccc1N1CCN(CCCCCCNc2c3c(nc4ccccc24)CCCC3)CC1 [Compound 28],,64.8 ± 2.2%,64.2 ± 3.4%,67.4% ± 11.3,67%
O=S(=O)(c1ccccc1)n1ccc2c(N3CCN(CCCCCCCNc4c5c(nc6ccccc46)CCCC5)CC3)cccc21 [Compound 4],1.31 ± 0.06 µM,46.4 ± 5.9%,58.8 ± 4.2%,,
c1ccc(CNCCCCCN2CCN(c3cccc4c3ccn4Cc3ccccc3)CC2)cc1 [Compound 22],,44.3 ± 6.5%,25.2 ± 3.4%,63.9% ± 7.7,
O=S(=O)(c1ccccc1)n1ccc2c(N3CCN(CCCCCNc4c5c(nc6ccccc46)CCCC5)CC3)cccc21 [Compound 2],8.07 ± 0.15 µM,,,,
c1ccc(Cn2ccc3c(N4CCN(CCCNc5c6c(nc7ccccc57)CCCC6)CC4)cccc32)cc1 [Compound 18],4.58 ± 0.21 µM,,,,
O=S(=O)(c1ccccc1)n1ccc2c(N3CCN(CCCCCCCCNc4c5c(nc6ccccc46)CCCC5)CC3)cccc21 [Compound 5],2.29 ± 0.13 µM,52.7 ± 5.7%,61.8 ± 4.1%,,
O=S(=O)(c1ccccc1)n1ccc2c(N3CCN(CCCCCNCc4ccccc4)CC3)cccc21 [Compound 9],23.4 ± 1.6 µM,44.8 ± 5.6%,48.0 ± 4.0%,,
c1ccc(CNCCCCCCN2CCN(c3cccc4c3ccn4Cc3ccccc3)CC2)cc1 [Compound 23],30.9 ± 1.58 µM,28.4 ± 3.8%,16.4 ± 2.8%,,
Cc1c(OCc2ccccc2)cccc1N1CCN(CCCCCCCNc2c3c(nc4ccccc24)CCCC3)CC1 [Compound 29],4.07 ± 0.27 µM,70.3 ± 3.9%,67.4 ± 4.1%,,
O=S(=O)(c1ccccc1)n1ccc2c(N3CCN(CCCCNCc4ccccc4)CC3)cccc21 [Compound 8],19.7 ± 1.54 µM,45.1 ± 5.1%,54.5 ± 3.8%,,
Cc1c(OCc2ccccc2)cccc1N1CCN(CCCCCCCCNc2c3c(nc4ccccc24)CCCC3)CC1 [Compound 30],,60.2 ± 2.6%,66.7 ± 5.1%,33.6% ± 11.1,34%
Cc1c(OCc2ccccc2)cccc1N1CCN(CCCNCc2ccccc2)CC1 [Compound 31],,39.5 ± 8.3%,24.4 ± 3.4%,34.0% ± 11.4,
Cc1c(OCc2ccccc2)cccc1N1CCN(CCCCNCc2ccccc2)CC1 [Compound 32],,42.5 ± 6.3%,43.2 ± 5.4%,42.8% ± 12.7,42.8%
